{"source": "patent US10197567B2", "about": "“Azoline compound and azole compound library and method for producing same” (The University of Tokyo, priority 2011, dated 2019)", "test_system": "PatD", "test": "PatD enzyme reaction: introduction of azoline rings into substrate peptides, mass change read by MALDI-TOF-MS", "format": "biochemical, Prochloron didemni", "conditions": "for Dehydrated molecules: modification with PatD of synthesized substrates (Table 11-2)", "method": "After the DNA prepared in 3-2 was transcribed and translated in a cell-free protein expression system of 2.5 μl scale in accordance with the method of Kawakami, et al. (Kawakami et al., Chemistry & Biology 15, 32-42 (2008)) and the solution conditions were adjusted by adding 40 mM Tris-HCl (pH 8.0), 8 mM DTT, 4 mM MgCl2, and 0.8 mM ATP (each, final concentration), recombinant PatD was added.\nThe reaction was conducted under two conditions as described below.\nThe mass of the peptide was measured using MALDI-TOF-MS by using sinapinic acid as a matrix and whether a mass change occurred or not by the addition of PatD was checked. The number of azoline rings introduced can be found from the mass change.", "note": "Square brackets hold non-standard residues; d marks the D form. Ends that are not written are not given here. * marks the point of attachment. Dap = NC[C@H](N)C(=O)O; For = O=C*"}
{"substance": "fMNKKNILPQQGQPVIRLTAGQLSSQLAELSEEALGDA-GLEAS-LCGCTSYCYTVS-AYDGV: PatD substrate: leader, recognition sequence 1, cassette, recognition sequence 2 (For-MNKKNILPQQGQPVIRLTAGQLSSQLAELSEEALGDAGLEASLCGCTSYCYTVSAYDGV; cysteine pairing not given here)", "values": [{"measurement": "Dehydrated molecules", "result": 2}]}
{"substance": "fMLAELSEEALGDA-GGGGG-VXAX (X=PhSer)-A: PatD substrate with shortened leader, GGGGG and PhSer in the cassette (For-MLAELSEEALGDAGGGGGV[PhSer]A[PhSer]A)", "values": [{"measurement": "Dehydrated molecules", "result": 1}]}
{"substance": "Ac—LAELSEEALGDA-GGGGG-VXAXIXFX (X=Dap)-A: synthetic peptide significantly different from a natural substrate (FIG. 17) (Ac-LAELSEEALGDAGGGGGV[Dap]A[Dap]I[Dap]F[Dap]A)", "values": [{"measurement": "Dehydrated molecules", "result": 4}]}
{"substance": "C1wt: PatE precursor peptide, leader-GLEAS-cassette-AYDGVEPS; cassette VTACITFC, same as wild type PatE (GLEASVTACITFCAYDGVEPS; An example of Recognition Sequence 1 based on Prochloron didemni.; Amino acid sequence of cassette region of wild type PatE; An example of Recognition Sequence 2 based on Prochloron didemni.)", "values": [{"measurement": "number of azoline rings introduced by PatD", "setting": "modification with PatD, change in molecular weight by MALDI-TOF-MS", "result": "four"}]}
{"substance": "fMNKKNILPQQGQPVIRLTAGQLSSQLAELSEEALGDA-GLEAS-VXAX (X=Dap)-AYDGVEPS: PatD substrate with Dap in the cassette (For-MNKKNILPQQGQPVIRLTAGQLSSQLAELSEEALGDAGLEASV[Dap]A[Dap]AYDGVEPS)", "values": [{"measurement": "Dehydrated molecules", "result": 2}]}
{"substance": "PatEC1wt-GS: precursor peptide; cassette VTACITFC, recognition sequence 2 AYDGVGSGSGS (GLEASVTACITFCAYDGVGSGSGS; An example of Recognition Sequence 1 based on Prochloron didemni.; Amino acid sequence of cassette region of wild type PatE; An example of Recognition Sequence 2 based on Prochloron didemni.)", "values": [{"measurement": "number of heterocycles in C-terminal short peptide", "setting": "treated with PatD and Glu-C, leader sequence cleaved", "result": "four"}]}
{"substance": "fMLAELSEEALGDA-GGGGG-VXAX (X=Dap)-A: PatD substrate with shortened leader, GGGGG and Dap in the cassette (For-MLAELSEEALGDAGGGGGV[Dap]A[Dap]A)", "values": [{"measurement": "Dehydrated molecules", "result": 1}]}
